The values below are quoted from earlier work in US20150056194A1, “MODIFIED GREEN TEA POLYPHENOLS AND METHODS THEREOF FOR TREATING LIVER DISEASE” (priority 2013, published 2015).

The conditions of data set [1]: animals receiving tea preparations in cancer prevention studies.
The next data set has as its system influenza. The following applies: compared with EGCG.

`O=C(O[C@@H]1Cc2c(O)cc(O)cc2O[C@@H]1c1cc(O)c(O)c(O)c1)c1cc(O)c(O)c(O)c1` [EGCG, (−)-Epigallocatechin-3-gallate]: the blood levels entry in data set [1] was “lower than 0.5 μuM”.

In the case of EGCG-palmitate, in the data set on influenza, the “anti-influenza activity, times more effective than EGCG” value is 24 times.
